One test relates to HIF-1a. Kind of test: HIF-1a expression by Western blot in HEC1a/EMP2 cells treated with kinase inhibitors in a hypoxic chamber. Type of test: cell-based, human. Particulars: 24 hrs, 1.0% hypoxic chamber. On the procedure:
To determine if EMP2 expression altered VEGF expression and secretion, cells were placed in a hypoxic chamber for 24 hours. EMP2 expression directly correlated with VEGF protein levels (FIG. 4B) as well as with secreted protein (FIG. 4C). […] Western blot analysis was carried out by Cells were lysed in Laemmli buffer. Proteins were separated by SDS-PAGE, transferred to a nitrocellulose membrane (Amersham Biosciences), and stained with Ponceau S (Sigma-Aldrich, St. Louis, Mo.) to determine transfer efficiency. Membranes were blocked with 10% low fat milk in PBS containing 0.1% Tween 20 and probed with EMP2 antisera (1:1000), anti-VEGF (Santa Cruz Biotech), antiHIF-1a (1:800; BD Biosciences), anti-PPAR-y (Santa Cruz Biotech), anti-p-Src (Cell Signaling, Danvers). Protein bands were visualized using a horseradish peroxidase (HRP)-labeled secondary antibody (BD Biosciences) followed by chemiluminescence (ECL; Amersham Biosciences). Band intensities were quantified using the NIH program Image J as above. To account for loading variability β-actin was used to normalize each sample. At least three independent experiments were performed and, where indicated, the results were evaluated for statistical significance using a Student's t-test (unpaired, one-tail). A level of P<0.05 was considered to be statistically significant.
In some experiments, inhibitors were added to determine the contribution of specific pathways to HIF-1a expression. HEC1a/EMP2 cells were treated with 10 μM of the kinase inhibitor Ly294002 (Cell Signaling), the EGFR inhibitor Erlotinib e; 10 μM, Genentech), or the Src family tyrosine kinase inhibitor Dasatinib e; 10 μM, Bristol-Myers Squibb). Efficacy of the inhibitors was tested at the manufacturer's recommended dosage, and potential toxicity was measured using trypan-blue exclusion. Samples were harvested and probed by SDS-PAGE/Western blot analysis as above […]
Using common inhibitors of AKT, PI3-kinase, EGFR, and Src tyrosine kinases, HEC1a/EMP2 cells were treated with these agents while in a hypoxic chamber.

Test [1] relates to human aortic endothelial cell (HAEC). Kind of test: Boyden chamber migration of HAEC towards cultured tumor cell supernatants. To be noted: added at 10μg/ml to the cultured tumor cell supernatant. Type of test: cell-based. The protocol: FIG. 4 depicts that EMP2 regulates VEGF expression. (A) A Boyden chamber assay was used to determine human aortic endothelial cell (HAEC) response to cultured tumor cell supernatants. In some experiments, the antiVEGF antibody Avastin® which binds soluble VEGF was added at 10μg/ml to the cultured supernatant. (B) The expression of total VEGF was measured using Western blot analysis. EMP2 expression was visualized to verify modulation of EMP2 in the cell lines; β-Actin was used as the loading control. (C) Secreted VEGF was measured using an ELISA. (D) Semi-quantitative expression of VEGF mRNA was determined using RTPCR. The experiment was repeated three times with similar results, and a representative blot is shown. GAPDH expression serves as a loading control. (E) Left, To determine the mechanism for VEGF regulation, HIF-1 a and PP ARy expression was determined using Western blot analysis. β-Actin expression serves as the loading control. Right, Quantization of HIF-1a expression relative to β-Actin for three independent experiments. The data represents the mean±SEM. […] Appropriate vehicle control cells are included. Western blot analysis was used to show the expression of EMP2, HIF-1a, and β-Actin in these cells.
Human umbilical vein endothelial cells (HUVEC) from passage 2 were purchased from BD Biosciences (San Diego, Calif.) and used between passages 3 and 7 for all experiments. […]

A further test deals with HUVEC. Particulars: supernatants of HEC1a/RIBO or HEC1a/shRNA 911; 20 or 50 µg/ml. The source says:
Migration assays. […] The experiment was repeated three times.

Entries after “also recorded” stand apart in the source; their conditions may differ.

In the case of `O=c1[nH]c2ccccc2n1C1CCN(Cc2ccc(-c3nc4cc5[nH]cnc5cc4nc3-c3ccccc3)cc2)CC1` [AKTi, Akt inhibitor VIII], the “EMP2-induced HIF-1a expression” value with HIF-1a is reported as “did not alter HIF-1a expression”; in the test on HIF-1a (listed as AKT inhibitors), “did not suppress”. With `CC(C)(C)n1nc(-c2ccc(Cl)cc2)c2c(N)ncnc21` [PP2], the “EMP2-induced HIF-1a expression” value with HIF-1a is given as “reversed”.

Consider `C#Cc1cccc(Nc2ncnc3cc(OCCOC)c(OCCOC)cc23)c1` [erlotinib, Erlotinib], for which the “EMP2-induced HIF-1a expression” value in the test with HIF-1a is given as “produced a similar effect; also recorded: sufficient to inhibit its expression”. Turning to Bevacizumab, the HAEC migration result in test [1] is listed as “reduced HAEC migration to control levels”. As to VEGF, the “HUVEC cell tube formation” value with HUVEC is listed as “sufficient to induce HUVEC cell tube formation”.

For the origin of these results see patent US20150079089A1, “EMP2 REGULATES ANGIOGENESIS IN CANCER CELLS THROUGH INDUCTION OF VEGF” (THE REGENTS OF THE UNIVERSITY OF CALIFORNIA, priority 2012, published 2015).
